Patent US11478558B2, “Prostate-specific membrane antigen targeted high-affinity agents for endoradiotherapy of prostate cancer” (The Johns Hopkins University, priority 2017, dated 2022)

What was measured:
PSMA(+) PC3 PIP cells = assay: Cell uptake, cell surface binding and internalization in PSMA(+) PC3 PIP cells; type: cell-based, human; details: for Blockade PC3 PIP: ZJ43 10 μM; for total uptake within the PSMA(+) PC3 PIP cells: 1 h to 24 h
PSMA = PSMA (Homo sapiens (Human), UniProt Q04609); assay: PSMA binding affinity; details: for Ki: Table 6, given as range
PSMA+ PC3 PIP tumors = assay: Radiopharmaceutical therapy in PC3 PIP flank tumor growth delay model; type: in vivo, NOD/SCID mice; details: for Median survival After 8 weeks post-treatment / Tumors above stated relative tumor growth after week 8 post-treatment (Vt/V0) / Mouse death (number of mice): 111 MBq; for Mouse death (number of mice): up to week 8 post-treatment; for Average final body weight: single i.v. dose 111 MBq (3 mCi)
Experimental: (§1) A pilot treatment study using NOD/SCID mice (n=10 per group) bearing PSMA+ PC3 PIP tumors with a single intravenous dose of 111 MBq (3 mCi) of agents ^177Lu-PSMA-617, ^177Lu-1, ^177Lu-3 and ^177Lu-5 and the control group (with saline treatment) were performed (Table 8). Volume of the all control group mice reached >5-fold of their initial tumor volume within 14 days. Mouse euthanized for treated group within 4 weeks of post-injection was mainly due to sudden body weight loss and not related to tumor growth. […] The difference among treatment groups was statistically significant (P=0.002) by the log-rank test compared to the untreated group. […] After 8-weeks, three mice from each treated group were used for detailed blood analysis and necropsy study. All animals underwent radiotherapy study had normal creatinine (0.3-0.4 mg/dL) and blood urea nitrogen levels. […] Additionally, a significant lowering of platelet for all three treated mice from ^177Lu-PSMA-617 compared control group and other treated groups.
Median survival for the ^177Lu-PSMA-617 was 133 days vs. 234 days for ^177Lu-1.
The remaining treated mice survived tumor-free for 10 months and were evaluated for toxicity.
(§2) Antitumor efficacy studies were performed in PC3 PIP flank tumor growth delay model to evaluate the therapeutic efficacy of a single dose intravenous injection of ^177Lu-L1, ^177Lu-L3, ^177Lu-L5 and ^177Lu-PSMA-617 vs. saline. This was a head-to-head comparison study and same batch of tumor-bearing mice and radioactivity. The study was commenced 14-18 days post-inoculation of the xenografts, when all the mice had tumor volume of about ˜60-85 mm^3 (Table 8). All the living mice were monitored for 8 weeks to monitor the growth delay. Mice body weight and tumor volume were monitored every 3 days throughout the experiment. Endpoint criteria defined by the institute ACUC was weight loss≥15%, a tumor volume>1800 mm^3, active ulceration of the tumor or abnormal behavior indicating pain or unease. After 8-weeks, three mice from each group were submitted for detail necropsy and blood analysis. Mice group treated with ^177Lu-1 and ^177Lu-PSMA-617 were continued to monitor until the endpoint. These definitions were also used for Kaplan-Meier analysis. The probability of reaching 5 times the initial tumor volume was characterized using Kaplan-Meier curves, and comparison was performed using the log-rank test. The formula used for calculation of tumor volume was V=width^2×length/2. Toxicity of the ^177Lu-treatment groups after 8-weeks and in healthy CD-1 (n=3) mice treated with 111 MBq was evaluated by pathologic examination at the Johns Hopkins Pathology Core facility with serum metabolic panel, blood counts, and full necropsy including detailed histopathology of kidneys, salivary glands and lacrimal glands.

PSMA(−) PC3 flu cells = assay: Cell uptake in PSMA(−) PC3 flu cells; type: cell-based, human
[1] = test system: PSMA(+) PC3 PIP and PSMA(−) PC3 flu tumor xenografts; assay: Biodistribution of 177Lu compounds (Example 5); details: 3 h post-injection
[2] = Blood analysis and necropsy after radiotherapy; type: in vivo, NOD/SCID mice
Experimental: as §1
Significant and concerning changes were identified in testes, and lacrimal grands primarily (FIG. 25) for all treated groups. […] Parotid glands, usually adjacent to exorbital lacrimal gland, are conspicuously spared and there were mild changes in the group treated ^177Lu-PSMA-617. […] T lymphoblastic lymphoma is accelerated by irradiation and some carcinogens, and is associated with interactions of endogenous retroviruses/retroelements in NOD/SCID mouse strains. […] The cells are large up to 25 μm, with very large nuclei (for a mouse) usually 2-3 nucleoli, and a high mitotic rate. Testis and lacrimal gland degenerative changes indicate that this animal did receive a treatment similar to other treated mice.
as §2

[3] = 111 MBq (3 mCi), after eight weeks, n=3

Chain of PSMA (Q04609 whole entry): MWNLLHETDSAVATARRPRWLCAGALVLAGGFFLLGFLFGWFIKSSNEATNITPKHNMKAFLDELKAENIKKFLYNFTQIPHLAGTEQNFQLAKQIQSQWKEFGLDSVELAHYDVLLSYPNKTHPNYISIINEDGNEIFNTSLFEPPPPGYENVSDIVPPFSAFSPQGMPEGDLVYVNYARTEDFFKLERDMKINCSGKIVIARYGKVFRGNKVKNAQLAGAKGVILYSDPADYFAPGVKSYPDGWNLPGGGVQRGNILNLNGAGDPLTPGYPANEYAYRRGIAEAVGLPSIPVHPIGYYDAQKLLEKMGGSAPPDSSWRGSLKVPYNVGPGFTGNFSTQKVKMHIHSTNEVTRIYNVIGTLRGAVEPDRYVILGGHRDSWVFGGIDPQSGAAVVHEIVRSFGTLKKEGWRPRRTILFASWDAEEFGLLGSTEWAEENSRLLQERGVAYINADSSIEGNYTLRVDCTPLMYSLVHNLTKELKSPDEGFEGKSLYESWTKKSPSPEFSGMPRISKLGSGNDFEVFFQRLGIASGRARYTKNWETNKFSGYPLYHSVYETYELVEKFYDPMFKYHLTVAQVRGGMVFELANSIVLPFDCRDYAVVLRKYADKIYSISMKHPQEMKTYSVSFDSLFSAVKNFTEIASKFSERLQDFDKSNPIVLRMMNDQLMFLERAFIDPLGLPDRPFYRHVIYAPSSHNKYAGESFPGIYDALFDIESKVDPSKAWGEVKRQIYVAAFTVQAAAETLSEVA

Compound: O=C(O)CC[C@H](NC(=O)N[C@@H](CCCCN(Cc1ccc(I)cc1)C(=O)CCCCNC(=O)CN1CCN(CC(=O)O)CCN(CC(=O)O)CCN(CC(=O)O)CC1)C(=O)O)C(=O)O [Ligand L2, (14S,18S)-9-(4-iodobenzyl)-2,8,16-trioxo-1-(4,7,10-tris(carboxymethyl)-1,4,7,10-tetraazacyclododecan-1-yl)-3,9,15,17-tetraazaicosane-14,18,20-tricarboxylic acid]
- Specific Cell Surface Binding (PSMA(+) PC3 PIP cells): 29.23 ± 0.80 % IA/10^6 cells
- specific internalization (PSMA(+) PC3 PIP cells): 24.96 ± 0.90 % IA/10^6 cells
- Ki (PSMA): 0.2 to 0.33 nM

Compound: O=C(O)CC[C@H](NC(=O)N[C@@H](CCCCN(Cc1ccc(Br)cc1)C(=O)CCCCCNC(=O)c1ccc(CNC(=O)CN2CCN(CC(=O)O)CCN(CC(=O)O)CCN(CC(=O)O)CC2)cc1)C(=O)O)C(=O)O [Ligand L3, (14S,18S)-9-(4-Bromobenzyl)-1,8,16-trioxo-1-(4-((2-(4,7,10-tris(carboxymethyl)-1,4,7,10-tetraazacyclododecan-1-yl)acetamido)methyl)phenyl)-2,9,15,17-tetraazaicosane-14,18,20-tricarboxylic acid]
- Specific Cell Surface Binding (PSMA(+) PC3 PIP cells): 36.65 ± 0.50 % IA/10^6 cells
- specific internalization (PSMA(+) PC3 PIP cells): 22.03 ± 0.60 % IA/10^6 cells
- Ki (PSMA): 0.09 to 34 nM

Compound: O=C(O)CC[C@H](NC(=O)N[C@@H](CCCCN(Cc1ccc(I)cc1)C(=O)CCCCCNC(=O)c1ccc(CNC(=O)CN2CCN(CC(=O)O)CCN(CC(=O)O)CCN(CC(=O)O)CC2)cc1)C(=O)O)C(=O)O [Ligand L4, (14S,18S)-9-(4-Iodobenzyl)-1,8,16-trioxo-1-(4-((2-(4,7,10-tris(carboxymethyl)-1,4,7,10-tetraazacyclododecan-1-yl)acetamido)methyl)phenyl)-2,9,15,17-tetraazaicosane-14,18,20-tricarboxylic acid]
- Ki (PSMA): 0.14 to 0.39 nM

Compound: O=C(O)CC[C@H](NC(=O)N[C@@H](CCCCN(Cc1ccc(I)cc1)C(=O)CCCCCCC(=O)NCCCCNC(=O)c1ccc(CNC(=O)CN2CCN(CC(=O)O)CCN(CC(=O)O)CCN(CC(=O)O)CC2)cc1)C(=O)O)C(=O)O [Ligand L6, (21S,25S)-16-(4-Iodobenzyl)-1,8,15,23-tetraoxo-1-(4-((2-(4,7,10-tris(carboxymethyl)-1,4,7,10-tetraazacyclododecan-1-yl)acetamido)methyl)phenyl)-2,7,16,22,24-pentaazaheptacosane-21,25,27-tricarboxylic acid]
- Ki (PSMA): 0.35 to 0.93 nM

Compound: O=C(O)CC[C@H](NC(=O)N[C@@H](CCCCNC(=O)CCCCNC(=S)Nc1ccc(CC2CN(CC(=O)O)CCN(CC(=O)O)CCN(CC(=O)O)CCN2CC(=O)O)cc1)C(=O)O)C(=O)O (stereo partly drawn) [Ligand L7, (13S,17S)-7,15-dioxo-1-((4-((1,4,7,10-tetrakis(carboxymethyl)-1,4,7,10-tetraazacyclododecan-2-yl)methyl)phenyl)amino)-1-thioxo-2,8,14,16-tetraazanonadecane-13,17,19-tricarboxylic acid]
- Ki (PSMA): 0.29 to 0.81 nM

Compound: O=C(O)CC[C@H](NC(=O)N[C@@H](CCCCN(Cc1ccc(Br)cc1)C(=O)c1ccc(CNC(=O)CN2CCN(CC(=O)O)CCN(CC(=O)O)CCN(CC(=O)O)CC2)cc1)C(=O)O)C(=O)O [Ligand L12, (((S)-5-(N-(4-Bromobenzyl)-4-((2-(4,7,10-tris(carboxymethyl)-1,4,7,10-tetraazacyclododecan-1-yl)acetamido)methyl)benzamido)-1-carboxypentyl)carbamoyl)-L-glutamic acid]
- Ki (PSMA): 0.22 to 4.03 nM

Compound: O=C(O)CC[C@H](NC(=O)N[C@@H](CCCCN(Cc1ccc(Br)nc1)C(=O)CCCCNC(=O)CN1CCN(CC(=O)O)CCN(CC(=O)O)CCN(CC(=O)O)CC1)C(=O)O)C(=O)O [Ligand L13, (14S,18S)-9-((6-Bromopyridin-3-yl)methyl)-2,8,16-trioxo-1-(4,7,10-tris(carboxymethyl)-1,4,7,10-tetraazacyclododecan-1-yl)-3,9,15,17-tetraazaicosane-14,18,20-tricarboxylic acid]
- Ki (PSMA): 0.23 to 8.1 nM

Compound: O=C([O-])CN1CCN(CC(=O)[O-])CCN(CC(=O)NCCCCC(=O)N(CCCC[C@H](NC(=O)N[C@@H](CCC(=O)O)C(=O)O)C(=O)O)Cc2ccc(Br)cc2)CCN(CC(=O)[O-])CC1.[Lu+3] [Lu-L1]
- fold improvement in binding affinity over L1 (PSMA): 3 fold

Compound: O=C([O-])CN1CCN(CC(=O)[O-])CCN(CC(=O)NCc2ccc(C(=O)NCCCCCC(=O)N(CCCC[C@H](NC(=O)N[C@@H](CCC(=O)O)C(=O)O)C(=O)O)Cc3ccc(Br)cc3)cc2)CCN(CC(=O)[O-])CC1.[177Lu+3] [^177Lu-L3]
- Median survival After 8 weeks post-treatment (PSMA+ PC3 PIP tumors): Not reached
- Tumors above stated relative tumor growth after week 8 post-treatment (Vt/V0) (PSMA+ PC3 PIP tumors): Two tumor > 4
- Mouse death (number of mice) (PSMA+ PC3 PIP tumors): Mouse death 3
- Average final body weight (PSMA+ PC3 PIP tumors): 25.8 ± 2.6 gram
- Cell uptake PC3 PIP (PSMA(+) PC3 PIP cells; 1 h): 27.0 ± 1.3 % incubated dose per 1 x 10^6 cells
- PC3 PIP cell Int (internalization) (PSMA(+) PC3 PIP cells; 1 h): 21.4 ± 1.4 % incubated dose per 1 x 10^6 cells
- Blockade PC3 PIP (PSMA(+) PC3 PIP cells; 1 h): 0.1 ± 0.0 % incubated dose per 1 x 10^6 cells
- total uptake within the PSMA(+) PC3 PIP cells (PSMA(+) PC3 PIP cells): ~30 % of the incubated dose
- Cell uptake PC3 PIP (PSMA(+) PC3 PIP cells; 2 h): 36.5 ± 0.3 % incubated dose per 1 x 10^6 cells
- PC3 PIP, line without name (position of cell internalization) (PSMA(+) PC3 PIP cells; 2 h): 23.7 ± 0.2 % incubated dose per 1 x 10^6 cells
- Cell uptake PC3 PIP (PSMA(+) PC3 PIP cells; 4 h): 32.6 ± 8.5 % incubated dose per 1 x 10^6 cells
- PC3 PIP cell int (internalization) (PSMA(+) PC3 PIP cells; 4 h): 24.9 ± 3.4 % incubated dose per 1 x 10^6 cells
- Cell uptake PC3 PIP (PSMA(+) PC3 PIP cells; 24 h): 45.2 ± 1.2 % incubated dose per 1 x 10^6 cells
- PC3 PIP cell int (internalization) (PSMA(+) PC3 PIP cells; 24 h): 30.0 ± 0.7 % incubated dose per 1 x 10^6 cells
- Cell uptake PC3 flu (PSMA(−) PC3 flu cells; 1 h): 0.1 ± 0.0 % incubated dose per 1 x 10^6 cells
- Cell uptake PC3 flu (PSMA(−) PC3 flu cells; 2 h): 0.1 ± 0.0 % incubated dose per 1 x 10^6 cells
- Cell uptake PC3 flu (PSMA(−) PC3 flu cells; 4 h): 0.1 ± 0.1 % incubated dose per 1 x 10^6 cells
- Cell uptake PC3 flu (PSMA(−) PC3 flu cells; 24 h): 0.1 ± 0.0 % incubated dose per 1 x 10^6 cells

Compound: O=C([O-])CN1CCN(CC(=O)[O-])CCN(CC(=O)NCc2ccc(C(=O)NCCCCNC(=O)CCCCCCC(=O)N(CCCC[C@H](NC(=O)N[C@@H](CCC(=O)O)C(=O)O)C(=O)O)Cc3ccc(Br)cc3)cc2)CCN(CC(=O)[O-])CC1.[177Lu+3] [^177Lu-L5]
- PSMA(+) PC3 PIP tumor uptake [1]: 56.3±18.3 % ID/g
- Albumin [2, 3]: 3 ± 0.4 g/dL
- Blood urea nitrogen [2, 3]: 22.7 ± 3.2 mg/dL
- Hematocrit [2, 3]: 49.7 ± 2.4%
- Hemoglobin [2, 3]: 14.3 ± 1.0 g/dL
- Lymphocytes [2, 3]: 0.4 ± 0.1 K/μL
- Mean Corpuscular Value(MCV) [2, 3]: 54.1 ± 1.4 fL
- Neutrophils [2, 3]: 2.0 ± 1.8 K/μL
- Platelets [2, 3]: 1415.3 ± 88.5 K/μL
- Red blood cells [2, 3]: 9.2 ± 0.7 M/μL
- Total protein [2, 3]: 5.9 ± 0.6 g/dL
- White blood cells [2, 3]: 2.9 ± 1.8 K/μL
- H&E pathology of testis ([2]; 111 MBq, after 8 weeks): most significant changes in testis
- Median survival After 8 weeks post-treatment (PSMA+ PC3 PIP tumors): Not reached
- Tumors above stated relative tumor growth after week 8 post-treatment (Vt/V0) (PSMA+ PC3 PIP tumors): one tumor > 5
- Mouse death (number of mice) (PSMA+ PC3 PIP tumors): Mouse death 3
- Average final body weight (PSMA+ PC3 PIP tumors): 27.5 ± 1.9 gram
- Cell uptake PC3 PIP (PSMA(+) PC3 PIP cells; 1 h): 26.6 ± 0.6 % incubated dose per 1 x 10^6 cells
- PC3 PIP cell Int (internalization) (PSMA(+) PC3 PIP cells; 1 h): 24.1 ± 0.5 % incubated dose per 1 x 10^6 cells
- Blockade PC3 PIP (PSMA(+) PC3 PIP cells; 1 h): 0.0 ± 0.0 % incubated dose per 1 x 10^6 cells
- total uptake within the PSMA(+) PC3 PIP cells (PSMA(+) PC3 PIP cells): ~30 % of the incubated dose
- Cell uptake PC3 PIP (PSMA(+) PC3 PIP cells; 2 h): 29.23 ± 0.8 % incubated dose per 1 x 10^6 cells
- PC3 PIP, line without name (position of cell internalization) (PSMA(+) PC3 PIP cells; 2 h): 25.0 ± 0.9 % incubated dose per 1 x 10^6 cells
- Cell uptake PC3 PIP (PSMA(+) PC3 PIP cells; 4 h): 34.4 ± 1.2 % incubated dose per 1 x 10^6 cells
- PC3 PIP cell int (internalization) (PSMA(+) PC3 PIP cells; 4 h): 26.1 ± 1.0 % incubated dose per 1 x 10^6 cells
- Cell uptake PC3 PIP (PSMA(+) PC3 PIP cells; 24 h): 49.8 ± 1.4 % incubated dose per 1 x 10^6 cells
- PC3 PIP cell int (internalization) (PSMA(+) PC3 PIP cells; 24 h): 27.9 ± 0.8 % incubated dose per 1 x 10^6 cells
- Cell uptake PC3 flu (PSMA(−) PC3 flu cells; 1 h): 0.2 ± 0.1 % incubated dose per 1 x 10^6 cells
- Cell uptake PC3 flu (PSMA(−) PC3 flu cells; 2 h): 0.0 ± 0.0 % incubated dose per 1 x 10^6 cells
- Cell uptake PC3 flu (PSMA(−) PC3 flu cells; 4 h): 0.1 ± 0.0 % incubated dose per 1 x 10^6 cells
- Cell uptake PC3 flu (PSMA(−) PC3 flu cells; 24 h): 0.1 ± 0.0 % incubated dose per 1 x 10^6 cells
